pIC50: −log10 of the molar value. Calls of active or inactive are those of the source. The rule behind the calls is not given here.
Legend:
[1] = Inhibition of Streptococcus agalactiae 4755 hyaluronidase at pH 5.0
[2] = (§1) Inhibition of bovine hyaluronidase at pH 5.0; design: species or system Bos taurus
Streptococcus agalactiae [3] = test: Inhibition of Streptococcus agalactiae 4755 hyaluronidase at 190 uM at pH 5.0
Bos taurus [4] = species: Bos taurus; test: Inhibition of bovine hyaluronidase up to 200 uM at pH 5.0
Streptococcus agalactiae [5] = test: Inhibition of Streptococcus agalactiae 4755 hyaluronidase upto 200 uM at pH 5.0
Streptococcus agalactiae [6] = test: Inhibition of Streptococcus agalactiae 4755 hyaluronidase at 1100 uM at pH 5.0
Bos taurus [7] = species: Bos taurus; test: Inhibition of bovine hyaluronidase up to 1.1 mM at pH 5.0
Streptococcus agalactiae [8] = test: Inhibition of Streptococcus agalactiae 4755 hyaluronidase at 2000 uM at pH 5.0
Bos taurus [9] = species: Bos taurus; test: Inhibition of bovine hyaluronidase up to 13 mM at pH 5.0
Streptococcus agalactiae [10] = test: Inhibition of Streptococcus agalactiae 4755 hyaluronidase at 160 uM at pH 5.0
Bos taurus [11] = species: Bos taurus; test: as §1
[12] = Inhibition of Streptococcus pneumoniae hyaluronidase
Bos taurus [13] = species: Bos taurus; test: Inhibition of bovine hyaluronidase up to 100 mM at pH 5.0
Bos taurus [14] = species: Bos taurus; test: Inhibition of bovine hyaluronidase at 1430 uM
Streptococcus agalactiae [15] = test: Inhibition of Streptococcus agalactiae 4755 hyaluronidase upto 13 mM at pH 5.0

CCCCCCCCCCCC(=O)OC[C@H](O)[C@H]1OC(=O)C(O)=C1O
pIC50 [1]: 4.33 | pIC50 [2]: 3.68

O=C(CCCCCOCc1ccc(-c2ccccc2)cc1)OC[C@H](O)[C@H]1OC(=O)C(O)=C1O
pIC50 [1]: 3.99 | pIC50 [2]: 3.27

CCCCCCCCCCCCCCCC(=O)OC[C@H](O)[C@H]1OC(=O)C2=C1OCCO2
inhibition (Streptococcus agalactiae [3]): 32% | Activity (Bos taurus [4]): inactive

CCCCCCCCCCCCCCCC(=O)OC[C@H](O)[C@H]1OC(=O)C(O)=C1O [ASCORBYL PALMITATE]
pIC50 [1]: 5.38 | pIC50 [2]: 4.24

CCCCCCCCCCCCCCCC(=O)OC[C@H](O)[C@H]1OC(=O)C(OCc2ccccc2)=C1OCc1ccccc1
Activity (Streptococcus agalactiae [5]): inactive | Activity (Bos taurus [4]): inactive

CCCCCCCCCCCCCC(=O)OC[C@H](O)[C@H]1OC(=O)C(O)=C1O
pIC50 [1]: 5.08 | pIC50 [2]: 4.15

CC(C)(C)C(=O)OC[C@H](O)[C@H]1OC(=O)C(O)=C1O
inhibition (Streptococcus agalactiae [6]): 43% | Activity (Bos taurus [7]): inactive

O=C1O[C@H]([C@@H](O)CO)C2=C1OCCO2
inhibition (Streptococcus agalactiae [8]): 24% | Activity (Bos taurus [9]): inactive

CCCCCCCCCCCCCCCC(=O)OC[C@H](O)[C@H]1OC(=O)C(OC)=C1OC
inhibition (Streptococcus agalactiae [10]): 5% | Activity (Bos taurus [4]): inactive

CCCCCCCCCC(=O)OC[C@H](O)[C@H]1OC(=O)C(O)=C1O
pIC50 [1]: 3.99 | pIC50 [2]: 2.86

CCc1ccc(OCCCCCC(=O)OC[C@H](O)[C@H]2OC(=O)C(O)=C2O)cc1
pIC50 [1]: 3.55 | Activity (Bos taurus [11]): inactive

CCCCCC(=O)OC[C@H](O)[C@H]1OC(=O)C(O)=C1O
pIC50 [1]: 3.32 | Activity (Bos taurus [11]): inactive

CCCCCCCCCCCCC(=O)OC[C@H](O)[C@H]1OC(=O)C(O)=C1O
pIC50 [1]: 4.84 | pIC50 [2]: 4.02

O=C(Cc1ccc(-c2ccccc2)cc1)OC[C@H](O)[C@H]1OC(=O)C(O)=C1O
pIC50 [1]: 3.45 | pIC50 [2]: 2.70

O=C1O[C@H]([C@@H](O)CO)C(O)=C1O [ASCORBIC ACID]
pIC50 [1]: 2.21 | pIC50 [12]: 2.24 | Activity (Bos taurus [13]): inactive

CCCCCCCC(=O)OC[C@H](O)[C@H]1OC(=O)C(O)=C1O
pIC50 [1]: 3.11 | Activity (Bos taurus [11]): inactive

O=C(CCCCCOc1ccccc1)OC[C@H](O)[C@H]1OC(=O)C(O)=C1O
pIC50 [1]: 3.14 | Activity (Bos taurus [11]): inactive

O=C(CCCCCCCCCCOc1ccccc1)OC[C@H](O)[C@H]1OC(=O)C(O)=C1O
pIC50 [1]: 4.51 | pIC50 [2]: 3.98

O=C1O[C@H]([C@@H](O)COC(=O)c2ccccc2)C(O)=C1O
inhibition (Bos taurus [14]): 33% | pIC50 [1]: 3.88

O=C1O[C@H]([C@@H](O)CO)C(OCc2ccccc2)=C1OCc1ccccc1
Activity (Bos taurus [9]): inactive | pIC50 [1]: 3.45

COC1=C(OC)[C@@H]([C@@H](O)CO)OC1=O
Activity (Bos taurus [9]): inactive | Activity (Streptococcus agalactiae [15]): inactive

CCCCCCCCCCCCCCCCCC(=O)OC[C@H](O)[C@H]1OC(=O)C(O)=C1O [ASCORBYL STEARATE]
pIC50 [1]: 6.05 | pIC50 [2]: 4.41

O=C(CCCCCOc1ccc(OCc2ccccc2)cc1)OC[C@H](O)[C@H]1OC(=O)C(O)=C1O
pIC50 [1]: 4.12 | pIC50 [2]: 3.68

O=C(CCCCCOc1ccc(-c2ccccc2)cc1)OC[C@H](O)[C@H]1OC(=O)C(O)=C1O
pIC50 [1]: 4.21 | pIC50 [2]: 3.73

CCCCCCCCCCC(=O)OC[C@H](O)[C@H]1OC(=O)C(O)=C1O
pIC50 [1]: 4.14 | pIC50 [2]: 3.24

O=C(CCCCCOCc1ccccc1)OC[C@H](O)[C@H]1OC(=O)C(O)=C1O
pIC50 [1]: 3.36 | Activity (Bos taurus [11]): inactive

O=C(CCCCCCCCCCOc1ccc(-c2ccccc2)cc1)OC[C@H](O)[C@H]1OC(=O)C(O)=C1O
pIC50 [1]: 5.12 | pIC50 [2]: 4.43

Reference: ChEMBL document CHEMBL1137250, “Novel 6-O-acylated vitamin C derivatives as hyaluronidase inhibitors with selectivity for bacterial lyases” (Bioorg Med Chem Lett, 2006)
